# Source: patent publication US5439920A, “1,2,5,6-tetrahydropyridine derivative, process for preparing it and its applications in therapy” (Laboratoire L. Lafon, priority 1993, dated 1995)
# pIC50: −log10 of the molar value. Counter-ions that a name gives are not always drawn.
# What was measured:
# [1] = target: T1, α2 receptors of rat cerebral cortex (Rattus norvegicus, UniProt P22909); experiment: Affinity for the α2 receptors of rat cerebral cortex ([^3 H]clonidine displacement); assay type: binding, Rats (male, CD1, Sprague-Dawley); conditions: rat cerebral cortex membranes, [^3 H]clonidine as marker
# T1 construct: The cerebral cortex is immediately removed; from tissue; host or cells: rat cerebral cortex membranes
# T1 sequence (P22909 1-465): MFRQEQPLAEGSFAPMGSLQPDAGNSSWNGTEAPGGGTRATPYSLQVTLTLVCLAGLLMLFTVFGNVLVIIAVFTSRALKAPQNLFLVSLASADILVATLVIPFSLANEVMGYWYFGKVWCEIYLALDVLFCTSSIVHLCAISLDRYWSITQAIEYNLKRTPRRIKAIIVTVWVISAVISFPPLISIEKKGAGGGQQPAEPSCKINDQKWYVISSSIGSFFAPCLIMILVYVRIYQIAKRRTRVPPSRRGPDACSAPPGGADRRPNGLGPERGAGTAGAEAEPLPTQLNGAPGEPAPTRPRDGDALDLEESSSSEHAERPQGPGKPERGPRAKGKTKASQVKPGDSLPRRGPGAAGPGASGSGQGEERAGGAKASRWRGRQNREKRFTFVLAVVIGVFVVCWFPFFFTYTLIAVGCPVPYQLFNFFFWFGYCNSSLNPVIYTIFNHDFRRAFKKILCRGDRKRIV
# Protocol: Rats (male, CD1, Sprague-Dawley, 200-250 g) are sacrificed by decapitation. The cerebral cortex is immediately removed. The cerebral cortices of 4 rats are homogenized in 40 ml of buffer. The homogenates are centrifuged at 20,000 rpm for 15 minutes. The pellet is resuspended in 40 ml of buffer and subjected to a second centrifugation (20,000 rpm for 15 minutes). The pellet thereby obtained is suspended in 8 ml of buffer and then stored at -80° C. until used. On the day of the experiment, a membrane suspension is prepared from the frozen suspension. Aliquots of this membrane suspension are mixed with radioactive ligands (used as marker for each type of receptor) and with increasing concentrations of the test compound, and then incubated (final volume: 1 ml). Reaction is stopped by filtration through a 48-hole HARVESTER system (WHATMAN GF/B filter strip). The filter strip is then washed 3 times with 5 ml of buffer and thereafter placed in an automatic cutting system (BRANDEL). The cut filters fall into counting vials and 4 ml of scintillation fluid (Aquasafe 300, ZINSSER) are distributed automatically by the same system (BRANDEL). Each sample is subjected to counting of the radioactivity using a liquid scintillation counter (KONTRON). Three experimental series are carried out with the test compound, each experiment being carried out in duplicate. […]
# α2 receptors = experiment: Interaction with yohimbine in mice; assay type: in vivo
# NMRI mice = experiment: Pretoxicity in NMRI mice, intraperitoneal; assay type: in vivo; conditions: 3 animals per dose, IP, increasing doses 16-512 mg/kg
# Protocol: Pretoxicity studies were performed in NMRI mice (3 animals per dose) with increasing doses of 16, 32, 64, 128, 256 and 512 mg/kg of products administered intraperitoneally. The dose causing the death of the three animals tested is given.
# spontaneous motility = experiment: Action on spontaneous motility in mice; assay type: in vivo; conditions: Mus musculus, ip, 0.5 h, intraperitoneal, half an hour before test, motility recorded over 30 minutes, read-out: dose at and above which a significant decrease in locomotion is observed
# Protocol: Half an hour after receiving the test compound intraperitoneally, the mice are placed in an activity-measuring device, where their motility is recorded over 30 minutes.
# [2] = system: intergroup aggressive behaviour; experiment: Action on intergroup aggressive behaviour; assay type: in vivo; conditions: mice, half an hour after test compound, fights in 10 minutes
# Protocol: After spending 3 weeks in each of the halves of a cage separated by an opaque partition, groups of 3 mice receive the test compound. Half an hour later, the two groups in the same cage are brought together by withdrawing the partition, and the number of fights occurring in the course of 10 minutes is noted.
SMILES,pIC50 [1],"effect of yohimbine on hypothermia induced by the compound (α2 receptors; yohimbine 0.5 mg/kg i.p., compound 0.125 and 0.5 mg/kg i.p.)","effect of yohimbine on hypomotility induced by the compound (α2 receptors; yohimbine 1 mg/kg i.p., compound 0.5 and 2 mg/kg i.p.)",dose causing the death of the three animals tested (NMRI mice),minimal effective dose (spontaneous motility),"minimal effective dose ([2]; Mus musculus, 0.5 h, read-out: dose at and above which the number of fights is decreased)",dose at which the number of fights is most particularly decreased [2]
"CC(C)N1CCC=C(c2ccccc2)C1 [CRL 41 244, N-isopropyl-3-phenyl-l,2,5,6-tetrahydropyridine, reference compound]",6.15,–,–,–,–,–,–
"C1=C(c2ccccc2)CNCC1 [Example 1, 3-phenyl-l,2,5,6-tetrahydropyridine hydrochloride]",7.59,decreases the hypothermia,decreases the hypomotility,128 mg/kg,≥ 0.032 mg/kg,≥ 0.032 mg/kg,0.125 mg/kg
